Measurements as given in ChEMBL document CHEMBL1201862, “PubChem BioAssay data set” (2004).
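All cell lines were grown in 96-well plates and treated with compound for 48 hours. GI50 = concentration required for 50% inhibition of growth.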 Active and inactive are the calls of the source. No stated cut-off is given here; in the data, active = GI50 up to about 1.1 µM and inactive = higher.

Key:
Experiment in all cases: DTP human tumour cell line panel, 48 h
[1] = system: CAKI-1
[2] = system: Malme-3M
[3] = system: OVCAR-3
[4] = system: LOX IMVI
[5] = system: SK-MEL-2
[6] = system: CCRF-CEM
[7] = system: Hs-578T
[8] = system: RXF 393
[9] = system: HT-29
[10] = system: HOP-92
[11] = system: SF-295
[12] = system: MDA-N
[13] = system: 786-0
[14] = system: MDA-MB-231
[15] = system: SN12C
[16] = system: HL-60
[17] = system: COLO 205
[18] = system: MDA-MB-435
[19] = system: HCT-15
[20] = system: SNB-19
[21] = system: MCF7
[22] = system: UACC-62
[23] = system: ACHN
[24] = system: A498
[25] = system: NCI-H460
[26] = system: SK-MEL-5
[27] = system: EKVX
[28] = system: SK-OV-3
[29] = system: IGROV-1
[30] = system: BT-549
[31] = system: SK-MEL-28
[32] = system: NCI-H226
[33] = system: KM12
[34] = system: NCI-H23
[35] = system: UACC-257
[36] = system: K562
[37] = system: RPMI-8226
[38] = system: SF-268
[39] = system: OVCAR-8
[40] = system: SR
[41] = system: OVCAR-4
[42] = system: HOP-62
[43] = system: DU-145
[44] = system: SF-539
[45] = system: UO-31
[46] = system: M14
[47] = system: NCI/ADR-RES
[48] = system: PC-3
[49] = system: U-251
[50] = system: NCI-H522
[51] = system: SW-620
[52] = system: TK-10
[53] = system: T47D
[54] = system: OVCAR-5
[55] = system: A549
[56] = system: HCT-116
[57] = system: SNB-75
[58] = system: MOLT-4
[59] = system: HCC 2998

CSCCC(C(=O)O)N(C)C (stereo not drawn)
GI50 [1]: > 100 µM (inactive)
GI50 [2]: > 100 µM (inactive)
GI50 [3]: > 100 µM (inactive)
GI50 [4]: > 100 µM (inactive)
GI50 [5]: > 100 µM (inactive)
GI50 [6]: > 100 µM (inactive)
GI50 [7]: > 100 µM (inactive)
GI50 [8]: > 100 µM (inactive)
GI50 [9]: > 100 µM (inactive)
GI50 [10]: > 100 µM (inactive)
GI50 [11]: > 100 µM (inactive)
GI50 [12]: > 100 µM (inactive)
GI50 [13]: > 100 µM (inactive)
GI50 [14]: > 100 µM (inactive)
GI50 [15]: > 100 µM (inactive)
GI50 [16]: > 100 µM (inactive)
GI50 [17]: > 100 µM (inactive)
GI50 [18]: > 100 µM (inactive)
GI50 [19]: > 100 µM
GI50 [20]: > 100 µM (inactive)
GI50 [21]: > 100 µM (inactive)
GI50 [22]: > 100 µM (inactive)
GI50 [23]: > 100 µM (inactive)
GI50 [24]: > 100 µM (inactive)
GI50 [25]: > 100 µM (inactive)
GI50 [26]: > 100 µM (inactive)
GI50 [27]: > 100 µM (inactive)
GI50 [28]: > 100 µM (inactive)
GI50 [29]: > 100 µM (inactive)
GI50 [30]: > 100 µM (inactive)
GI50 [31]: > 100 µM (inactive)
GI50 [32]: > 100 µM (inactive)
GI50 [33]: > 100 µM (inactive)
GI50 [34]: > 100 µM (inactive)
GI50 [35]: > 100 µM (inactive)
GI50 [36]: 41.9 µM (inactive)
GI50 [37]: > 100 µM (inactive)
GI50 [38]: > 100 µM (inactive)
GI50 [39]: > 100 µM (inactive)
GI50 [40]: > 100 µM (inactive)
GI50 [41]: > 100 µM (inactive)
GI50 [42]: > 100 µM (inactive)
GI50 [43]: > 100 µM (inactive)
GI50 [44]: > 100 µM (inactive)
GI50 [45]: > 100 µM (inactive)
GI50 [46]: > 100 µM (inactive)
GI50 [47]: > 100 µM (inactive)
GI50 [48]: > 100 µM (inactive)
GI50 [49]: > 100 µM (inactive)
GI50 [50]: > 100 µM (inactive)
GI50 [51]: > 100 µM (inactive)
GI50 [52]: > 100 µM (inactive)
GI50 [53]: > 100 µM (inactive)
GI50 [54]: > 100 µM (inactive)
GI50 [55]: > 100 µM (inactive)
GI50 [56]: > 100 µM (inactive)
GI50 [57]: > 100 µM (inactive)

O=C(CN1C(=O)c2ccccc2C1=O)NC1(C(=O)O)CCCC1
GI50 [1]: > 100 µM (inactive)
GI50 [2]: > 100 µM (inactive)
GI50 [3]: > 100 µM (inactive)
GI50 [4]: > 100 µM (inactive)
GI50 [5]: > 100 µM (inactive)
GI50 [6]: > 100 µM (inactive)
GI50 [7]: > 100 µM (inactive)
GI50 [8]: > 100 µM (inactive)
GI50 [9]: > 100 µM (inactive)
GI50 [11]: > 100 µM (inactive)
GI50 [58]: > 100 µM (inactive)
GI50 [12]: > 100 µM (inactive)
GI50 [13]: > 100 µM (inactive)
GI50 [14]: > 100 µM (inactive)
GI50 [15]: > 100 µM (inactive)
GI50 [16]: > 100 µM (inactive)
GI50 [17]: > 100 µM (inactive)
GI50 [18]: > 100 µM (inactive)
GI50 [19]: > 100 µM
GI50 [20]: > 100 µM (inactive)
GI50 [21]: > 100 µM (inactive)
GI50 [22]: > 100 µM (inactive)
GI50 [23]: > 100 µM (inactive)
GI50 [24]: > 100 µM (inactive)
GI50 [26]: > 100 µM (inactive)
GI50 [27]: > 100 µM (inactive)
GI50 [28]: > 100 µM (inactive)
GI50 [29]: > 100 µM (inactive)
GI50 [30]: > 100 µM (inactive)
GI50 [31]: > 100 µM (inactive)
GI50 [32]: > 100 µM (inactive)
GI50 [33]: > 100 µM (inactive)
GI50 [34]: > 100 µM (inactive)
GI50 [35]: > 100 µM (inactive)
GI50 [36]: > 100 µM (inactive)
GI50 [37]: > 100 µM (inactive)
GI50 [38]: > 100 µM (inactive)
GI50 [39]: > 100 µM (inactive)
GI50 [40]: > 100 µM (inactive)
GI50 [41]: > 100 µM (inactive)
GI50 [42]: > 100 µM (inactive)
GI50 [43]: > 100 µM (inactive)
GI50 [45]: > 100 µM (inactive)
GI50 [46]: > 100 µM (inactive)
GI50 [47]: > 100 µM (inactive)
GI50 [48]: > 100 µM (inactive)
GI50 [49]: > 100 µM (inactive)
GI50 [50]: > 100 µM (inactive)
GI50 [51]: > 100 µM (inactive)
GI50 [52]: > 100 µM (inactive)
GI50 [53]: > 100 µM (inactive)
GI50 [54]: > 100 µM (inactive)
GI50 [55]: > 100 µM (inactive)
GI50 [59]: > 100 µM (inactive)
GI50 [56]: > 100 µM (inactive)
GI50 [57]: > 100 µM (inactive)
